Source: ChEMBL document CHEMBL5126544, “Recent results from non-basic glycosidase inhibitors: How structural diversity can inform general strategies for improving inhibition potency” (Eur J Med Chem, 2022)
Values belong to the compound of their own block, whether it stands above or below them.

How the values were obtained:
[1] = Inhibition of saccharomyces cerevisiae alpha-glucosidase using PNPG as substrate preincubated for 2 mins followed by substrate addition for 15 mins by microplate reader analysis
[2] = Inhibition of alpha-glucosidase (unknown origin) using PNP glycoside as substrate preincubated for 30 mins followed by substrate addition and measured after 60 mins by spectrophotometric analysis
[3] = Inhibition of baker's yeast alpha-glucosidase using PNPG as substrate preincubated for 10 mins followed by substrate addition and measured after 30 mins by microplate reader analysis; design: species or system Saccharomyces cerevisiae
[4] = Inhibition of almond beta-glucosidase using PNPG as substrate preincubated for 10 mins followed by substrate addition and measured after 20 mins by spectrophotometric analysis; design: species or system Prunus dulcis
[5] = Inhibition of saccharomyces cerevisiae alpha-glucosidase using pNPG as substrate preincubated for 15 mins followed by substrate addition
[6] = Inhibition of saccharomyces cerevisiae alpha-glucosidase using PNP-G as substrate incubated for 20 mins
[7] = Inhibition of Bacillus stearothermophilus alpha-glucosidase type IV using p-nitrophenyl-alpha-D-glucopyranoside as substrate preincubated for 15 mins followed by substrate addition and measured after 35 mins by microtiter plate reader analysis; design: species or system Geobacillus stearothermophilus
[8] = Inhibition of yeast alpha-glucosidase; design: species or system Saccharomyces cerevisiae
[9] = Inhibition of recombinant Streptococcus pneumoniae NanB using MUNANA as substrate
[10] = Inhibition of Caldocellum-saccharolyticum […] using 4-nitrophenyl beta-d-glucopyranoside preincubated for 30 to 60 mins followed by substrate addition; design: species or system Caldicellulosiruptor saccharolyticus
[11] = Inhibition of human alpha-fucosidase
[12] = Inhibition of alpha-glucosidase (unknown origin) using p-nitrophenyl-alpha-D-glucopyranoside as substrate preincubated for 10 mins followed by substrate addition and measured after 30 mins
[13] = Inhibition of rat intestinal maltase
[14] = Inhibition of alpha-amyloglucosidase (unknown origin) assessed as reduction in conversion of starch to glucose using starch as substrate preincubated with substrate for 20 mins followed by enzyme addition and measured after 30 mins
[15] = Inhibition of saccharomyces cerevisiae alpha-glucosidase using PNP-G as substrate by spectrophotometric analysis
[16] = Inhibition of baker's yeast alpha-glucosidase using p-nitrophenyl-alpha-glucopyranoside as substrate by spectrophotometric analysis; design: species or system Saccharomyces cerevisiae

IC50 [1]: 102 µM
Compound: C/C(=C\O)[C@@H]1OC(=O)[C@H]2O[C@@]23[C@@]1(C)CC[C@@H]1[C@@]2(CCC(=O)[C@]13C)COC(=O)C[C@@H]2O

IC50 [2]: 21 µM
Compound: Brc1cccc(-c2nc3ccc(Br)cc3[nH]2)c1

IC50 [3]: 8 µM
Compound: COc1ccc(O)cc1/C=N/NC(=O)c1ccc(-c2nc3cc(C)c(C)cc3[nH]2)cc1

IC50 [4]: 5 µM
Compound: O[C@@H]1[C@H](O)Cn2c(nc3ccccc32)[C@@H]1O

IC50 [5]: 25 µM
Compound: Cc1cccc2nc(-c3ccc(O)c(O)c3)[nH]c12

IC50 [5]: 5 µM
Compound: Cc1cccc2nc(-c3ccccc3Cl)[nH]c12

IC50 [6]: 2.1 µM
Compound: CCCCC1(CCCC)O[C@H]2Cc3c(O)cc(O)cc3O[C@@H]2c2cc(O)c(O)cc21

IC50 [7]: 23 µM
Compound: Oc1cc(O)cc(/C=C/c2ccc(O)c(O)c2)c1 [PICEATANNOL]

IC50 [8]: 10.4 µM
Compound: O=c1c(-c2ccc(O)cc2)coc2cc(O)cc(O)c12 [GENISTEIN]

IC50 [9]: 39 µM
Compound: O=S(=O)(O)CCNCc1cccc(Cl)c1

IC50 [7]: 4.9 µM
Compound: Oc1cc(O)cc(/C=C/c2cc(O)c(O)c3c2[C@H](c2cc(O)cc(O)c2)[C@@H](c2cc(O)c(O)c(O)c2)O3)c1

Compound: OC[C@@H]1[C@@H](O)[C@H](O)[C@@H](O)c2nccn21
Ki [10]: 0.02 µM

IC50 [1]: 98 µM
Compound: COC(=O)/C=C/c1ccc(OCC=C(C)C)c(OC)c1

IC50 [2]: 38 µM
Compound: Oc1ccccc1-c1nc2ccc(Br)cc2[nH]1

Ki [11]: 0.000105 µM
Compound: C[C@@H]1N[C@H](CNC(=O)CCc2c[nH]c3ccccc23)[C@@H](O)[C@H](O)[C@@H]1O

IC50 [3]: 8 µM
Compound: Cc1cc2nc(-c3ccc(C(=O)N/N=C/c4cc(O)ccc4O)cc3)[nH]c2cc1C

IC50 [12]: 2 µM
Compound: O=C1c2c(Cl)c(Cl)c(Cl)c(Cl)c2C(=O)N1CCCCc1ccccc1

IC50 [12]: 3.5 µM
Compound: O=C1c2c(Cl)c(Cl)c(Cl)c(Cl)c2C(=O)N1CCCCCc1ccccc1

IC50 [7]: 6.5 µM
Compound: COc1cc([C@@H]2c3c(O)cc(O)cc3[C@@H]3[C@H]2CO[C@H]3c2cc(O)c(O)c(O)c2)cc(OC)c1O

IC50 [13]: 0.042 µM
Compound: O=[N+]([O-])c1ccccc1CO[C@@H](CO)[C@H](O)C[S+]1C[C@@H](O)[C@H](O)[C@H]1CO (single isomer, unassigned)

IC50 [7]: 8.3 µM
Compound: Oc1ccc(/C=C/c2cc(O)cc3c2[C@H](c2cc(O)cc(O)c2)[C@@H](c2ccc(O)c(O)c2)O3)cc1 [SCIRPUSIN A]

IC50 [5]: 16 µM
Compound: Cc1cccc2nc(-c3ccccc3O)[nH]c12

IC50 [5]: 30 µM
Compound: COc1ccc(-c2nc3cccc(C)c3[nH]2)c(O)c1

IC50 [14]: 9 µM
Compound: Cn1c(Nc2ccc(CC3SC(=O)NC3=O)cc2)nc2ccccc21 (centres undefined)

IC50 [1]: 195 µM
Compound: C/C=C(\C)C(=O)NCCc1ccc(OCC=C(C)C)cc1

IC50 [15]: 66 µM
Compound: COc1ccc(-c2oc3cc(O[C@H]4O[C@H](CO)[C@@H](O)[C@H](O)[C@H]4O)c(OC)c(O)c3c(=O)c2O)cc1CCC(C)COC(C)=O (some centres undefined)

IC50 [9]: 57 µM
Compound: Cc1cccc(CNCCS(=O)(=O)O)c1

Ki [10]: 0.00011 µM
Compound: OC[C@@H]1[C@@H](O)[C@H](O)[C@@H](O)c2nc(CCc3ccccc3)cn21

IC50 [16]: 0.15 µM
Ki [16]: 0.053 µM
Compound: O=C(NC[C@H]1N[C@H](CO)[C@@H](O)[C@@H]1O)C1Cc2ccccc21 (some centres undefined)

IC50 [5]: 34 µM
Compound: Cc1cccc2nc(-c3ccccc3F)[nH]c12

IC50 [13]: 1.6 µM
Compound: OC[C@@H]1[C@@H](O)[C@H](O)C[S@@+]1C[C@@H](O)[C@@H](O)CO

IC50 [1]: 4.6 µM
Compound: COc1cc2ccc(=O)oc2cc1O [SCOPOLETIN]

IC50 [14]: 9 µM
Compound: Cn1c(NCc2ccc(CC3SC(=O)NC3=O)cc2)nc2ccccc21 (centres undefined)
